Legend:
Type in all cases: in vivo, C57BL/6J mice
[1] = system: bilateral common carotid arteries occlusion mice; assay: Y-maze test (spontaneous alternation behavior); conditions: oral, after 7 days of administration, FIG. 1
Protocol: (§1) Experimental Example: 10-week-old male C57BL/6J mice (CLEA Japan, Inc. approximately 25 g of average body weight per mouse) were preliminarily acclimated for 1 week, and provided for experiments. L-citrulline and citicoline were obtained from KYOWA HAKKO BIO CO., LTD.
(§2) C57BL/6J mice were divided into a sham-operation group (Group 1) and a bilateral common carotid arteries occlusion group, which was performed under halothane anesthesia for 20 minutes. One day after reperfusion, the bilateral common carotid arteries occlusion group was further divided into a distilled water-treated group (Group 2), a low-dose L-citrulline-treated group (40 mg/kg: Group 3), a low-dose citicoline-treated group (40 mg/kg: Group 4), a high-dose L-citrulline-treated group (100 mg/kg: Group 5), a high-dose citicoline-treated group (100 mg/kg: Group 6), and a combination treatment group of a low dose of L-citrulline and a low dose of citicoline (each 40 mg/kg: Group 7). Each sample was orally administered for 12 days. […] After evaluating learning memory functions, the hippocampus was removed and viability of hippocampal nerve cells was evaluated.
In the Y-maze test, a Y-maze apparatus with three arms (50×16×32 cm) was used. […] The sequence of arm entries was recorded. The number of entries into each arm was counted during the measurement time, which was defined as the total number of entries. […]

[2] = system: bilateral common carotid arteries occlusion mice; assay: Passive avoidance test; conditions: oral, after 7 days of administration, compared to Group 2, FIG. 2
Protocol: as §1
(§3) C57BL/6J mice were divided into a sham-operation group (Group 1) and a bilateral common carotid arteries occlusion group, which was performed under halothane anesthesia for 20 minutes. […] After evaluating learning memory functions, the hippocampus was removed and viability of hippocampal nerve cells was evaluated.
The passive avoidance test was performed using a box consisting of dark (25×25×25 cm) and light compartments (14×10×25 cm) and being equipped with an electrical stimulation apparatus at the bottom of the dark compartment. […] Twenty four hours after training, the mouse was placed again in the light compartment, and the latency time spent in the light compartment was recorded with a maximum latency of 300 seconds.

[3] = system: bilateral common carotid arteries occlusion mice; assay: Novel object recognition test; conditions: oral, after 7 days of administration, novel vs familiar object, FIG. 3
Protocol: as §1
as §2, with “7).” for “7). Each sample was orally administered for 12 days.”
The novel object recognition test was performed after mice were individually acclimated to the open field apparatus (35×25×35 cm) for 2 days. […] A ratio of the frequency of exploring the familiar or novel object over the total exploration frequency was calculated, and used as an index for visual recognition memory.

[4] = system: hippocampal nerve cells (CA1 pyramidal cell layer); assay: Evaluation of viability of hippocampal nerve cells; conditions: oral for 12 days, compared to Group 2, FIG. 4
Protocol: as §1, §3
Twelve days after bilateral occlusion of the common carotid arteries, mice were anesthetized with pentobarbital sodium, and perfused with ice-cold phosphate buffer (PBS, pH 7.4) until the blood in the body was completely removed. […] Surviving and non-surviving nerve cells in the CA1 pyramidal cell layer of the hippocampus were counted at 1.4 to 1.8 mm posterior to bregma, and cells with PI-positive nuclei and typical morphological characteristics were defined as surviving nerve cells. The cell viability was calculated from a ratio to the average number of surviving nerve cells in Group 1.

## NC(=O)NCCC[C@H](N)C(=O)O [L-citrulline]
[1]; high dose 100 mg/kg, compared to Group 2
  spontaneous alternation behavior rate (Alternation): improved effect of memory behavior
[1]; low dose 40 mg/kg, compared to distilled water-treated occlusion group (Group 2)
  spontaneous alternation behavior rate (Alternation): Alternation cannot be improved
[2]; high dose 100 mg/kg
  time spent in the light compartment (Latency time): improved effect of memory behavior
[2]; low dose 40 mg/kg
  time spent in the light compartment (Latency time): latency time cannot be improved
[3]; high dose 100 mg/kg
  frequency of exploring the novel object: remarkably improved effect of memory behavior
[3]; low dose 40 mg/kg
  frequency of exploring the novel object: frequency of exploring the novel object cannot be increased
[4]; high dose 100 mg/kg
  viability of hippocampal nerve cells: nerve cell-protecting effect
[4]; low dose 40 mg/kg
  viability of hippocampal nerve cells: viability of hippocampal nerve cells cannot be improved
